{
  "source": "patent US10794898B2",
  "about": "“High-throughput, high-precision methods for detecting protein structural changes in living cells” (REGENTS OF THE UNIVERSITY OF MINNESOTA, priority 2014, dated 2020)",
  "key": {"2-color SERCA2a (2CS)": {"biological_target": "T1, 2-color SERCA2a (2CS) (Canis lupus familiaris, UniProt O46674, INS508[…])", "T1 construct": "expressed in transfected cells", "assay": "Live-cell 2-color SERCA (2CS) FRET assay in fluorescence lifetime plate reader", "format": "cell-based, canine", "details": "for LOPAC library screen outcome (2CS GFP lifetime outside 3SD window): hit = lifetime change more than 3 SD from DMSO controls, repeated", "from_the_text": "Using recombinant DNA technology, the gene for TagRFP was fused to the N-terminus of canine SERCA2a. This fusion position is in the A-domain of the pump. EGFP was fused as an intrasequence tag before residue 509 in the N-domain. The structural model presented in FIG. 1A corresponds to the isoform SERCA1a, which is 84% homologous to SERCA2a. Hou et al. evaluated several intrasequence fusion positions chosen using x-ray crystal structures of SERCA1a to identify unstructured loops and predict large relative distance changes without affecting SERCA function. (Hou et al., PLoS ONE 2012, 7, e40369). The 509 site was chosen because the labeled construct had normal SERCA activity and its intramolecular FRET signal was sensitive to SERCA structural state, as shown below.\n(§1) The 96-well plate format LOPAC library was reformatted into four 384-well polystyrene mother plates (Corning, Corning, N.Y.) using a Biomek FX liquid handler (Beckman Coulter, Brea, Calif.), and diluted to 500 μM using DMSO. Column 1, 22, 23 and 24 were loaded with DMSO for in-plate no-compound controls. The LOPAC compounds were distributed in column 2 through 21. Each plate contains 64 wells of DMSO controls, and 320 wells of compounds from the LOPAC library. Black well, high-quality-glass bottom Greiner 384-well microplates (PN 781892) were selected as the assay plates for their optical clarity, low autofluorescence, and low inter-well cross-talks. Compounds (1 μL) were transferred from the mother plates into assay plates using a Mosquito HV liquid handler (TTP Labtech Ltd, UK). The plates were sealed and stored at −20° C. until use. On the day of screening, the plates were equilibrated to room temperature (25° C.). Stable GFP-SERCA2a (donor only control) or 2CS cells were lifted from a 225 cm^2 flask by incubating with TrypLE (Invitrogen) for 5 min. Cells were collected and pelleted for 5 min at 500 g and resuspended in 10 mL PBS, then analyzed on a Countess cell counter (Invitrogen) and diluted to 1×10^6 cells/mL. 49 μL Cells were plated on top of the compounds by a FlexDrop IV reagent dispenser (PerkinElmer, Waltham, Mass.). Assay plates were spun for 1 min at 200 g and allowed to incubate at RT for 20 min before reading on a fluorescence lifetime plate reader (constructed in collaboration with Fluorescence Innovations, Inc., Minneapolis, Minn.). GFP fluorescence was excited with a 473 nm microchip laser from Concepts Research Corporation (Belgium, Wis.) and emission was filtered with 490 nm long pass and 520/35 nm band pass filters from Semrock (Rochester, N.Y.).\nTime-resolved fluorescence waveforms for each well were fitted to single-exponential decays using global analysis software. Each plate contained 64 control wells with only DMSO, and a hit was defined as a compound that changed the 2CS donor lifetime by more than three times the standard deviation (SD) relative to the controls. Fluorescent compounds that caused the intensity of both untransfected HEK cells and 2CS cells to be more than 3SD outside the mean of the 64 controls on a plate were excluded from the hits as likely false positives."}, "SERCA": {"biological_target": "T2, SERCA (Sus scrofa, UniProt P11607)", "T2 construct": "Cardiac sarcoplasmic reticulum (SR) vesicles were prepared from the ventricular tissue of swine hearts; from tissue; host or cells: ventricular tissue of swine hearts (cardiac SR vesicles)", "T2 sequence (P11607 1-997 isoform P11607-2)": "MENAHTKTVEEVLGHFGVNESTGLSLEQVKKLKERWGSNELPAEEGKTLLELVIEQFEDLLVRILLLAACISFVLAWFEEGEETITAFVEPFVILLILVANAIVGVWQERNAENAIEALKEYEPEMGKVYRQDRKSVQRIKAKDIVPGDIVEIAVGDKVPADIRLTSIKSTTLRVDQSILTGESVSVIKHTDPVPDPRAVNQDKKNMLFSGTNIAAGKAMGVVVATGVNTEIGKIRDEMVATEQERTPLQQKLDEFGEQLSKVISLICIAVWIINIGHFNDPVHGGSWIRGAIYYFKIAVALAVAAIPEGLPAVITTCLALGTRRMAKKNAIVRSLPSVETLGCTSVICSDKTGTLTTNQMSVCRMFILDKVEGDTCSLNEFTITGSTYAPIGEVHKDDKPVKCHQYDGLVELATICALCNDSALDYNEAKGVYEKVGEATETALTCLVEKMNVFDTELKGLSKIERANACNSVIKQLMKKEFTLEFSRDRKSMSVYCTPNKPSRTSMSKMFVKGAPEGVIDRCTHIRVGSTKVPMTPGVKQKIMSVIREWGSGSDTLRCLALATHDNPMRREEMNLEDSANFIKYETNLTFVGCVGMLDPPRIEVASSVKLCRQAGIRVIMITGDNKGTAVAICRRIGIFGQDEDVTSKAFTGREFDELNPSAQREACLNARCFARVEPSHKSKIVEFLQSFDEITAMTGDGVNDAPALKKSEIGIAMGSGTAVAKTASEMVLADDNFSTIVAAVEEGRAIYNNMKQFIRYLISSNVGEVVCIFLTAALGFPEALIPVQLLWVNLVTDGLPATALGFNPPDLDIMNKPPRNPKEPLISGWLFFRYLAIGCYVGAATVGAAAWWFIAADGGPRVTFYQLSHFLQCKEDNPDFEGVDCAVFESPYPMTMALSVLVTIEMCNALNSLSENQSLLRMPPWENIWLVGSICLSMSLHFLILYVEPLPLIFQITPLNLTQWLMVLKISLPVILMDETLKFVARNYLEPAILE", "assay": "Enzyme-coupled, NADH-linked SERCA ATPase assay in pig cardiac SR", "format": "biochemical", "set-up": "inhibition of ATPase activity: dose or concentration left out as unconfirmed", "method": "An enzyme-coupled, NADH-linked ATPase assay was used to measure SERCA ATPase activity (Stergiopoulos et al., BMC Health Serv Res 2012, 12, 345). in 96-well microplates. Each well contained 50 mM MOPS (pH 7.0), 100 mM KCl, 5 mM MgCl2, 1 mM EGTA, 0.2 mM NADH, 1 mM phosphoenol pyruvate, 10 IU/mL of pyruvate kinase, 10 IU/mL of lactate dehydrogenase, 3.5 μg/mL of the calcium ionophore A23187, and CaCl2 added to set free [Ca^2+] to the desired values. (Mueller et al., Biochemistry 2004, 43, 8754-8765). 2.5 μg of cardiac SR or 25 μg of HEK cell homogenate were used in each well to correct for the difference in SERCA content. The assay was started upon the addition of ATP at a final concentration of 5 mM and read in a SpectraMax Plus microplate spectrophotometer (Molecular Devices, Sunnyvale, Calif.), bring the total volume to 200 μL. Results were normalized to SERCA content determined from immunoblotting.\nEffects of known activators and LOPAC hits on SERCA ATPase activity was evaluated in pig cardiac SR. Compounds were dissolved in DMSO, and adjusted to […] the concentrations used in the final assay wells. 4 μL prediluted compounds were added to each well to keep the final [DMSO] at 2% (v/v)."}, "[1]": {"tested_on": "Ca2+ uptake into microsomes", "details": "cited from earlier work"}, "Plasmodium falciparum": {"tested_on": "Plasmodium falciparum", "details": "cited from earlier work"}, "GFP-SERCA2a": {"tested_on": "GFP-SERCA2a", "assay": "Donor-only control: GFP lifetime in GFP-SERCA2a cells", "format": "cell-based, canine", "method": "as §1, with “Compounds (1 μL) were transferred from the mother plates into assay plates using a Mosquito HV liquid handler (TTP Labtech Ltd, UK). The plates were sealed and stored at −20° C. until use. On the day of screening, the plates were equilibrated to room temperature (25° C.). Stable GFP-SERCA2a (donor only control) or 2CS cells were lifted from a 225 cm^2 flask by incubating with TrypLE (Invitrogen) for 5 min.” left out, “49 μL Cells were plated on top of the compounds by a FlexDrop IV reagent dispenser (PerkinElmer, Waltham, Mass.).” left out\nTime-resolved fluorescence waveforms for each well were fitted to single-exponential decays using global analysis software. […]"}},
  "note": "Where two headings read alike, the source gives them in different places.",
  "data": [
    {"smiles": "Cc1ccc2cccc(NC(=O)c3ccc(OC(C)C)cc3)c2n1", "note": "[CDN1163]", "values": [
      {"measurement": "effect on FRET between GFP and RFP in 2CS", "setting": "2-color SERCA2a (2CS); dose-response, live cells", "result": "reduce FRET"},
      {"measurement": "mode of SERCA activation", "setting": "SERCA", "result": "increasing the activity at saturating [Ca^2+]"}
    ]},
    {"smiles": "CC(=O)C1=C(O)[C@@H]2[C@H]3c4c[nH]c5cccc(c45)C[C@H]3C(C)(C)N2C1=O", "note": "[CPA, cyclopiazonic acid]", "values": [
      {"measurement": "Kd", "setting": "SERCA", "result": "~40", "unit": "nM"}
    ]},
    {"smiles": "[Cl-].c1ccc2c(c1)[I+]c1ccccc1-2", "note": "[DPI, diphenyline iodonium chloride]", "values": [
      {"measurement": "inhibition of Ca2+ uptake into microsomes", "setting": "[1]; 30 µM", "result": 18, "unit": "%"},
      {"measurement": "inhibition of Ca2+ uptake into microsomes", "setting": "[1]; 100 µM", "result": 32, "unit": "%"},
      {"measurement": "FRET efficiency at maximal effect", "setting": "2-color SERCA2a (2CS); basal FRET 0.12", "result": 0.10},
      {"measurement": "LOPAC library screen outcome (2CS GFP lifetime outside 3SD window)", "setting": "2-color SERCA2a (2CS)", "result": "reproducible hits"},
      {"measurement": "maximal reduction of FRET", "setting": "2-color SERCA2a (2CS); maximal effect in dose-response", "result": "~18", "unit": "%"},
      {"measurement": "inhibition of ATPase activity", "setting": "SERCA", "result": "< 50", "unit": "%"},
      {"measurement": "functional (ATPase) inhibition", "setting": "SERCA; below 10 μM", "result": "very little functional inhibition"},
      {"measurement": "IC50 for inhibition of parasite growth", "setting": "Plasmodium falciparum", "result": "submicromolar"}
    ]},
    {"smiles": "C/C=C(/C)C(=O)O[C@H]1C(C)=C2[C@H]([C@@H]1OC(=O)CCCCCCC)[C@@](C)(OC(C)=O)C[C@H](OC(=O)CCC)[C@@]1(O)[C@H]2OC(=O)[C@@]1(C)O", "note": "[TG, thapsigargin]", "values": [
      {"measurement": "reduction of FRET", "setting": "2-color SERCA2a (2CS); at 7.5 nM", "result": "~33", "unit": "%"},
      {"measurement": "LOPAC library screen outcome (2CS GFP lifetime outside 3SD window)", "setting": "2-color SERCA2a (2CS)", "result": "reproducible hits"},
      {"measurement": "ATPase activity", "setting": "SERCA; at 7.5 nM", "result": "nearly ablated"},
      {"measurement": "effect on ATPase activity at the highest concentrations tested", "setting": "SERCA", "result": "completely inhibit ATPase activity"}
    ]},
    {"smiles": "COc1cc(/C=C(\\C#N)C(=O)Nc2nnc(C(F)(F)F)s2)ccc1OCc1ccc(C(F)(F)F)cc1C(F)(F)F", "note": "[XCT 790]", "values": [
      {"measurement": "reduction of FRET", "setting": "2-color SERCA2a (2CS); dose-response assay, concentration not given", "result": "~42", "unit": "%"},
      {"measurement": "LOPAC library screen outcome (2CS GFP lifetime outside 3SD window)", "setting": "2-color SERCA2a (2CS)", "result": "reproducible hits"},
      {"measurement": "effect on ATPase activity at the highest concentrations tested", "setting": "SERCA", "result": "completely inhibit ATPase activity"},
      {"measurement": "effect on the lifetime of GFP-SERCA2a alone", "setting": "GFP-SERCA2a", "result": "no effect"}
    ]}
  ]
}
